Source: paper PMC4376459, “CXCR3 antagonist VUF10085 binds to an intrahelical site distinct from that of the broad spectrum antagonist TAK-779” (British Journal of Pharmacology, 2015)
Residue numbers refer to the chain shown, from its start.

Legend:
[1] = biological target: T1, D112N-CXCR3 (Homo sapiens, UniProt P49682, D112N); experiment: Chemotaxis assay, L1.2 transfectants migrating to CXCL11; assay type: cell-based; conditions: 10 nM CXCL11, read-out: IC50 for inhibition of migration
T1 construct: expressed in transfected cells; host or cells: murine pre-B cell line L1.2, transient transfection
T1 sequence (P49682 1-368 D112N): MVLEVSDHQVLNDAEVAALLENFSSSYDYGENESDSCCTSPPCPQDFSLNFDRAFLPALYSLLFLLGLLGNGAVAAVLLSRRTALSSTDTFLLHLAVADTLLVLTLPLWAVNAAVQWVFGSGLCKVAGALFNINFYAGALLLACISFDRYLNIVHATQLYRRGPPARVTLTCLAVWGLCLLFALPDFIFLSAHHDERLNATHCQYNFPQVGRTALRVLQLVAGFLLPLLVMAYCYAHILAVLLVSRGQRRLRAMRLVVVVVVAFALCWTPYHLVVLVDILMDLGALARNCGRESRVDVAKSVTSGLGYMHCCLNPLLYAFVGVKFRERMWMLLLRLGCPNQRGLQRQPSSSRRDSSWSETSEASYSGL

[2] = biological target: T2, CXCR3 Y308A (Homo sapiens, UniProt P49682, Y308A); experiment: as above; assay type: cell-based; conditions: 30 nM CXCL11
T2 construct: expressed in transfected cells; host or cells: murine pre-B cell line L1.2, transient transfection
T2 sequence (P49682 1-368 Y308A): T1 sequence (P49682 1-368 D112N) with N112D, Y308A

[3] = biological target: T3, CXCR3 N132A (Homo sapiens, UniProt P49682, N132A); experiment: Whole-cell 125I-CXCL11 binding assay, L1.2 transfectants; conditions: maximum concentration of CXCL11
T3 construct: expressed in transfected cells; host or cells: murine pre-B cell line L1.2, transient transfection
T3 sequence (P49682 1-368 N132A): T1 sequence (P49682 1-368 D112N) with N112D, N132A
Description: (§1) A previously described pcDNA3 plasmid containing human wild type (WT) CXCR3 cDNA with an HA epitope tag encoded at the N terminus (Meiser et al., [2008]) was used as a template for the generation of point mutants by PCR using the QuikChange II site-directed mutagenesis kit (Stratagene, Amsterdam, the Netherlands). All constructs were verified by DNA sequencing (Eurofins MWG Operon, Ebersberg, Germany) before use. L1.2 cells were transiently transfected by electroporation with 1 μg of vector DNA/10^6 cells at 330V, 975μF and incubated overnight in medium supplemented with 10 mM of sodium butyrate to enhance gene expression.
(§2) Whole-cell binding assays on transiently transfected L1.2 cells were performed as described previously (Vaidehi et al., [2009]) using 0.1 nM ^125I-CXCL11 (Perkin Elmer) and increasing concentrations of unlabeled CXCL11 or antagonist. Cell-associated radioactivity was counted in a Canberra Packard Cobra 5010 gamma counter (Canberra Packard, Pangebourne, UK). Curve fitting and subsequent data analysis was carried out using the program PRISM (GraphPad Software, Inc., San Diego, CA, USA) and IC50 values were obtained by non-linear regression analysis. In all experiments, each data point was assayed in duplicate, with each individual experiment repeated three times. Background binding levels obtained in the presence of a 1000–3000 molar excess of unlabelled chemokine were subtracted from each data point and data are presented as the percentage of counts obtained in the absence of competing ligand. KD values and the number of binding sites per cell were calculated from homologous binding curves prepared in Graph Pad Prism (La Jolla, CA, USA) as previously described (Nedjai et al., [2011]).

[4] = biological target: T4, CXCR3 F207A (Homo sapiens, UniProt P49682, F207A); experiment: as above; conditions: maximum concentration of CXCL11
T4 construct: expressed in transfected cells; host or cells: murine pre-B cell line L1.2, transient transfection
T4 sequence (P49682 1-368 F207A): T1 sequence (P49682 1-368 D112N) with N112D, F207A
Description: as §1, §2

[5] = biological target: T5, CXCR3 Y271A (Homo sapiens, UniProt P49682, Y271A); experiment: as above; conditions: maximum concentration of CXCL11
T5 construct: expressed in transfected cells; host or cells: murine pre-B cell line L1.2, transient transfection
T5 sequence (P49682 1-368 Y271A): T1 sequence (P49682 1-368 D112N) with N112D, Y271A
Description: as §1, §2

Compound | IC50 [1] | increase in IC50 value, chemotaxis ([2]; Y308A versus WT) | IC50 ([2]; Y308A, read-out: IC50 chemotaxis (mean ± SEM)) | displacement of 125I-CXCL11 by unlabelled CXCL11 [3] | displacement of 125I-CXCL11 by unlabelled CXCL11 [4] | displacement of 125I-CXCL11 by unlabelled CXCL11 [5]
Cc1ccc(-c2ccc3c(c2)C=C(C(=O)Nc2ccc(C[N+](C)(C)C4CCOCC4)cc2)CCC3)cc1.[Cl-] [TAK-779, N,N-dimethyl-N-[4-[[[2-(4-methylphenyl)-6,7-dihydro-5H-benzocyclohepten-8-yl]-carbonyl]amino]benzyl] tetrahydro-2H-pyran-4-aminium chloride] | 1.34 µM | twofold | 41.4 ± 22.6 µM | – | – | –
CXCL11: recombinant human chemokine, CXCR3 agonist, purchased from PeproTech | – | – | – | unable to displace 50% | unable to displace 50% | unable to displace 50%
